In patent US10543157B2, “Method of treating a hair disorder with N-hydroxypyridinones” (The Procter & Gamble Company, priority 2016, dated 2020):
Structures can show the parent of a compound that is named as a salt.

Experiments:
HIF-1α = experiment: In-vitro cell based HIF-1 stabilization (ELISA); conditions: human dermal fibroblasts, 4 hrs treatment, normalized to cytochrome c
Source text: (§1) Wherein R′ and R″ are independently either hydrogen or a substituted or unsubstituted hydrocarbon group having between 1 and 20 carbon atoms. Compounds of this class can be synthesized following the procedure disclosed in U.S. Pat. No. 5,675,013. In certain aspects, the 2-pyridinol-N-oxide compound is 1-hydroxy-6-(octyloxy)-2(1H)-Pyridinone. This compound can be synthesized following the procedure disclosed in U.S. Pat. No. 5,675,013. Methods In-Vitro Cell Based Method for Measuring HIF-1 Stabilization and VEGF Induction: Human dermal fibroblasts are maintained and treated in Dulbecco's Modified Eagle Medium (DMEM) supplemented with 10% fetal bovine serum (FBS) and 1% penicillin/streptomycin. For HIF and VEGF experiments, cells are plated at 10,000 cells per well in 96-well plates. After two days, cells are treated with materials of interest solubilized in DMSO. DMSO concentration in media never exceeded 0.5%. Treatment times are 4 hrs for HIF-1a and 24 hrs for VEGF. Analytes are assayed via ELISA. After 4 hrs treatment, cells are fixed and assayed for HIF-1a using the Human/Mouse Total HIF-1a Immunoassay (R&D Systems) according to manufacturer instructions. After 24 hrs treatment, spent culture media are harvested and assayed for VEGF using the V-PLEX Human VEGF Kit (MSD) according to manufacturer instructions. HIF-1a and VEGF signals are normalized to cytochrome c signal and ATP signal, respectively, and then compared to that of untreated control. Half-maximal effective concentrations of materials are calculating using GraphPad Prism version 6 software or any other suitable software.

VEGF = experiment: In-vitro cell based VEGF induction (ELISA); conditions: human dermal fibroblasts, 24 hrs treatment, spent media, normalized to ATP
Source text: as §1

[1] = system: scalp hair (target area hair count); experiment: Clinical study #1, split-scalp, total hair count; type: in vivo, human; conditions: for Total Hair Count Change from Baseline Mean +/− SE / Total Hair Count Difference of CFBs (active minus vehicle) Mean +/− SE: topical twice a day, test compound 1%, minoxidil 2% (Rogaine for Women)
Description: (§2) Two randomized, double-blind, vehicle-controlled split-scalp studies are conducted as follows:
Two weeks prior to the Baseline visit, subjects are randomized into one of the 2 treatment groups appearing in the table below.
(§3) Subjects have the imaging sites located and tattoos placed within the imaging sites to mark the area that will be used for image capture. Three days post-tattoo placement, subjects will begin the pretreatment phase during which they applied their pretreatment products on the designated side of their scalp (left/right) for 11 days as a way of training subjects on the tonic application procedures. After the pretreatment phase has been completed, qualified subjects begin the 16-week treatment phase. Within each treatment group, left/right product assignments are randomized (tonic product and vehicle). In the first study subjects applied the assigned tonic product to the designated side of the scalp twice a day. The morning before each site visit, subjects wash and dry their hair and refrain from applying their test products and any styling aides until after their study visit has been completed. Subjects are instructed to wash hair at least every other day with a standard 2-in-1 shampoo during the entire washout and treatment phases. In the second study, after the pretreatment phase has been completed, subjects had their hair washed using the standard shampoo (½ head washing procedure) by a trained operator and blown dry by themselves. After washing hair (no treatment products and no styling products after washing), the two 1.8×1.8 cm imaging sites on the midfrontal/parietal scalp are clipped for hair count analysis as described below. Site staff then apply the two treatment products to the assigned sites (3×3 cm) on the scalp. Subjects return to the study site later in the day and site staff apply the 2nd application of treatment products for that day (i.e. twice a day tonic application) to each site. The following day, the subjects return to the test site and have their hair washed using the standard shampoo (½ head washing procedure) by site staff and blown dry themselves. Images of the two sites are captured for anagen hair count.
(§4) An efficacy end point of these studies is the change from baseline in target area hair count (hairs/cm2) at week 8 and/or 16, as applicable. Initial hair count and growth phase assessments are performed at baseline and at weeks 8 and 16, as applicable, in a designated target area of the scalp identified by the mini tattoo applied at baseline. The assessments are performed using a 1.8-cm2 square template centered over the mini tattoo. Hair within the template is clipped to approximately 1 mm in length. Photographic imaging equipment is supplied by Canfield Scientific Inc (Fairfield, N.J.) and is used to take macrophotographs of the shaved target area. The equipment comprises a Nikon D-SLR camera body (Nikon Corporation, Tokyo, Japan), Nikkor 60 MM F2.8 lens (Nikon Corporation), and a Canfield Epiflash (Canfield Scientific Inc, Fairfield, N.J.) with a glass contact plate and is preset and locked for magnification, f-stop, and exposure control. The analysis of the hair count photographs is performed by Canfield's core imaging laboratory. (ref: Harness J A, Kohut B, Garner J, Canfield W, Canfield D, Bertolino A. Evaluation of hair count and thickness measurements in male and female pattern hair loss using a computer-assisted technique. Poster presented at: European Hair Research Society; Zurich, Switzerland, Jul. 7-9, 2005.) The same 1 cm^2 area is mapped among the baseline, week 8, and week 16 images using the dot tattoo as a reference. Each image is then assigned a definite tracking number and randomized before analysis. The compliant and validated Canfield Hair Metrix (Canfield Scientific Inc, Fairfield, N.J.) image analysis application measures the total number of hair fibers and number of telogen and anagen hair. […]

[2] = system: scalp hair (target area hair count); experiment: Clinical study #2, split-scalp, total hair count; type: in vivo, human; conditions: topical twice a day
Description: as §2, §3
[…] study site in the morning and had their hair washed by site staff (½ head washing procedure) and blown dry by themselves in the morning before the 1st application of treatment products of the day. Site staff then apply the two treatment products to the assigned sites (3×3 cm) on the scalp. Subjects return to the study site later in the day and site staff apply the 2nd application of the treatment products for that day (i.e. twice a day tonic application) to each site.
An efficacy end point of these studies is the change from baseline in target area hair count (hairs/cm2) at week 8 and/or 16, as applicable. […]

[3] = system: anagen (growing) hairs of scalp; experiment: Clinical study #2, anagen hair count; type: in vivo, human; conditions: for ANAGEN Hair counts Change from Baseline Mean +/− SE / ANAGEN Hair counts Difference of CFBs Mean +/− SE: time not given in table (text: week 8)
Source text: as §3
(§5) The following day and for every day during the 8-week treatment phase subjects returned to the study site in the morning and had their hair washed by site staff (½ head washing procedure) and blown dry by themselves in the morning before the 1st application of treatment products of the day. Site staff then apply the two treatment products to the assigned sites (3×3 cm) on the scalp. Subjects return to the study site later in the day and site staff apply the 2nd application of the treatment products for that day (i.e. twice a day tonic application) to each site.
An efficacy end point of these studies is the change from baseline in target area hair count (hairs/cm2) at week 8 and/or 16, as applicable. Initial hair count and growth phase assessments are performed at baseline and at weeks 8 and 16, as applicable, in a designated target area of the scalp identified by the mini tattoo applied at baseline. The assessments are performed using a 1.8-cm2 square template centered over the mini tattoo. Hair within the template is clipped to approximately 1 mm in length. Photographic imaging equipment is supplied by Canfield Scientific Inc (Fairfield, N.J.) and is used to take macrophotographs of the shaved target area. The equipment comprises a Nikon D-SLR camera body (Nikon Corporation, Tokyo, Japan), Nikkor 60 MM F2.8 lens (Nikon Corporation), and a Canfield Epiflash (Canfield Scientific Inc, Fairfield, N.J.) with a glass contact plate and is preset and locked for magnification, f-stop, and exposure control. […]

[4] = system: telogen (resting) hairs of scalp; experiment: Clinical study #2, telogen hair count; type: in vivo, human; conditions: for TELOGEN Hair counts Change from Baseline Mean +/− SE / TELOGEN Hair counts Difference of CFBs Mean +/− SE: time not given in table (text: week 8)
Source text: as §3, §5
as §4, with “reference.” for “reference. Each image is then assigned a definite tracking number and randomized before analysis. The compliant and validated Canfield Hair Metrix (Canfield Scientific Inc, Fairfield, N.J.) image analysis application measures the total number of hair fibers and number of telogen and anagen hair.”

[5] = versus vehicle (minoxidil: versus baseline and vehicle), week 8
[6] = Study #2, 16 weeks (so in the source)

CCCCCCCCOc1cccc(=O)n1O [N-Hydroxy-6-octyloxypyridine-2(1H)one]
EC50 (HIF-1α; Fibroblast): 17 µM | EC50 (VEGF; Fibroblast): 30 µM | Total Hair Count Change from Baseline Mean +/− SE ([1]; Study #1, 8 weeks): 6.15 +/− 1.91 hairs/cm^2 | Total Hair Count Difference of CFBs (active minus vehicle) Mean +/− SE ([1]; Study #1, 8 weeks): 3.94 +/− 1.71 hairs/cm^2 | Total Hair Count Change from Baseline Mean +/− SE ([1]; Study #1, 16 weeks): 3.11 +/− 1.79 hairs/cm^2 | Total Hair Count Difference of CFBs (active minus vehicle) Mean +/− SE ([1]; Study #1, 16 weeks): 3.27 +/− 1.73 hairs/cm^2 | hair count response as share of the minoxidil response, on average ([1]; Study #1, average of week 8 and 16): 29% | hair count from baseline and above vehicle treatment (in words) ([1]; Study #1, week 8 & 16 (p=0.019 and p=0.045)): significant increase in hair count | Total Hair Count Change from Baseline Mean +/− SE ([2]; Study #2, 8 weeks, 0.9%): 10.13 +/− 1.15 hairs/cm^2 | Total Hair Count Difference of CFBs (active minus vehicle) Mean +/− SE ([2]; Study #2, 8 weeks, 0.9%): 3.35 +/− 1.37 hairs/cm^2 | ANAGEN Hair counts Change from Baseline Mean +/− SE [3]: 3.82 +/− 1.14 hairs/cm^2 | ANAGEN Hair counts Difference of CFBs Mean +/− SE [3]: 3.18 +/− 1.22 hairs/cm^2 | number of anagen (growing) hairs (in words) [3, 5]: significant increase in growing hairs | telogen effluvium (shedding) ([4]; conclusion drawn from telogen counts): will not cause telogen effluvium | TELOGEN Hair counts Change from Baseline Mean +/− SE [4]: 2.96 +/− 1.11 hairs/cm^2 | TELOGEN Hair counts Difference of CFBs Mean +/− SE [4]: 0.51 +/− 1.21 hairs/cm^2 | number of telogen (resting) hairs (in words) [4, 5]: little or no effect

Nc1cc(N2CCCCC2)nc(N)[n+]1[O-] [Minoxidil, reference compound]
Total Hair Count Change from Baseline Mean +/− SE ([1]; Study #1, 8 weeks): 14.3 +/− 2.98 hairs/cm^2 | Total Hair Count Difference of CFBs (active minus vehicle) Mean +/− SE ([1]; Study #1, 8 weeks): 11.29 +/− 3.02 hairs/cm^2 | Total Hair Count Change from Baseline Mean +/− SE ([1]; Study #1, 16 weeks): 14.83 +/− 3.53 hairs/cm^2 | Total Hair Count Difference of CFBs (active minus vehicle) Mean +/− SE ([1]; Study #1, 16 weeks): 13.45 +/− 3.47 hairs/cm^2 | Total Hair Count Change from Baseline Mean +/− SE [2, 6]: 12.93 +/− 1.77 hairs/cm^2 | Total Hair Count Difference of CFBs (active minus vehicle) Mean +/− SE [2, 6]: 5.76 +/− 2.1 hairs/cm^2 | ANAGEN Hair counts Change from Baseline Mean +/− SE [3]: 8.66 +/− 1.75 hairs/cm^2 | ANAGEN Hair counts Difference of CFBs Mean +/− SE [3]: 7.79 +/− 1.87 hairs/cm^2 | TELOGEN Hair counts Change from Baseline Mean +/− SE [4]: −4.07 +/− 1.71 hairs/cm^2 | TELOGEN Hair counts Difference of CFBs Mean +/− SE [4]: −7.45 +/− 1.85 hairs/cm^2

Cc1cc(CC(C)CC(C)(C)C)n(O)c(=O)c1 (stereo not shown) [1-Hydroxy-4-methyl-6-(2,4,4-trimethylpentyl)pyridin-2(1H)-one ethanolammonium salt]
EC50 (HIF-1α): 0.4 µM | EC50 (VEGF): 2.1 µM

CCOC(=O)c1ccnc(C(=O)OCC)c1 [2,4-DPD, 2,4-pyridinedicarboxylic acid, diethyl ester, reference compound]
EC50 (HIF-1α; Fibroblast): 406 µM | EC50 VEGF Induction (VEGF): no response

Cc1cc(C2CCCCC2)n(O)c(=O)c1 [6-cyclohexyl-1-hydroxy-4-methyl-2(1H)-pyridinone]
EC50 (HIF-1α; Fibroblast): 3.9 µM | EC50 (VEGF; Fibroblast): 2.5 µM

CCCCCCCCOc1cccc(=O)n1O [N-Hydroxy-6-octyloxypyridine-2(1H)one, ethanolamine salt]
EC50 (VEGF): 13 µM
